According to patent US20260327211A1, “MODULATORS OF A POTASSIUM CHANNEL AND OF TRPV1 CHANNEL AND USES THEREOF” (Bsense Bio Therapeutics Ltd., priority 2023, published 2026):
pIC50: −log10 of the molar value.

What was measured:
MIA-OA rats = experiment: Dynamic weight bearing in MIA-OA rats; assay type: in vivo, rat; settings: 100 mg/kg (naproxen 30 mg/kg), 6 hours post-dose
Method: Monosodium iodoacetate-induced osteoarthritis (MIA-OA): The animals were anaesthetized using an Isoflurane+O2 mixture. Then 50 μl of MIA at a concentration of 60 mg/mL was injected into the right knee joint using a 30 G needle. On study days 13 and 14 following MIA injection, the animals' dynamic weight bearing and response to von Frey filaments were measured.
Dynamic Weight Bearing (DWB): DWB study was performed using the DWB2 apparatus (Bioseb, Paris, France). The rats were placed in a transparent cage containing a matrix comprising around 2000 high-precision force sensors embedded in its floor where they were allowed to move freely. The force sensors measured the weight distribution on each of the four paws of the animal in grams. The animal was filmed from above using a high-definition camera, and the video feed was analyzed in real-time during the test using tracking software, allowing a precise analysis of the animal's posture and hind paws identification. Out of 5 minutes of animal behavior recording, a segment of 2 minutes was analyzed. Once the analysis was completed, the software provided the weight distribution of each hind paw as the main readout and the ratio between the injured and intact hind paws was then calculated.

rats = experiment: Rotarod assay (PSPP); assay type: in vivo, rat; settings: up to 300 mg/kg, male and female, 1-6 hours post-dose
Source text: Animals: 50 male and 50 female Sprague Dawley rats from Envigo (Frederick, MD) were used in the study. Male animals were received at body weights between approximately 200-215 grams, and female animals between 175-205 grams. All animals were housed 3 per cage (15.55×13.63×8.39 inches) and acclimated to the vivarium for 6-9 days prior to testing. All cages contained BedO'Cob® bedding with Nylabones® for enrichment. All rats were examined, handled, and weighed prior to initiation of the study to ensure adequate health and suitability. During the study, 12/12 light/dark cycles were maintained. The room temperature was maintained between […] and 23° C. with relative humidity maintained around 50%. Chow (LabDiet 5001, LabDiet, St. Louis, MO, USA) and water were provided ad libitum except where specified below. Testing was performed during the animal's light cycle phase (between 6 am and […]). Body weights were recorded prior to baseline assessment. Latency to fall off the rotating rod was the primary measure of performance.
Training: Each trial on the rotarod was identical, a 5 second ramp from 0-17 RPM followed by a period of constant velocity at 17 RPM for up to 40 seconds, for a total trial time of […].
Animals ran three training trials on Day 1 with a 30 minutes interval between training trials. […] The outcome measured was latency to fall off the rotating rod. […]

muscarinic m2 receptor = biological target: T1, muscarinic m2 receptor (Homo sapiens, UniProt P08172); experiment: Functional selectivity panel, muscarinic m2 receptor; assay type: biochemical
T1 construct: Eurofins DiscoverX, USA
T1 sequence (P08172 whole entry): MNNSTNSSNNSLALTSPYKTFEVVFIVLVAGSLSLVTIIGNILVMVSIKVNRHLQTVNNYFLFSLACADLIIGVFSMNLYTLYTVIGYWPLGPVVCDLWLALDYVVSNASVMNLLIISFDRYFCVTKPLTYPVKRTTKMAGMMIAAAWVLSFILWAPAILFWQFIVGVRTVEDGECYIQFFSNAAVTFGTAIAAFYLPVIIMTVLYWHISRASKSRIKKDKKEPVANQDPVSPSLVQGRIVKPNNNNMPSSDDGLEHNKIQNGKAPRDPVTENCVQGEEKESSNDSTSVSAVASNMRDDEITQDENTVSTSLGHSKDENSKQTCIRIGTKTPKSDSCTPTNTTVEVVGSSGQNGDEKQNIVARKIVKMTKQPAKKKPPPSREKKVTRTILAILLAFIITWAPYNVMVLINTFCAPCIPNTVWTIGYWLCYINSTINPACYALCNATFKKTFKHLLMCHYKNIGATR
Method: (§1) A broad panel of 78 recombinant targets was tested for pharmacologic activity in vitro through a variety of functional assays (Eurofins DiscoverX, USA), as part of the National Institute of Neurological Disorders and Stroke (NINDS) Preclinical Screening Platform for Pain (PSPP) program. The biological targets for the in vitro profiling have been selected based on avoiding opioid receptor stimulation and targets known to be associated with adverse events or targeted by drugs of abuse. […] For each test, a reference compound was evaluated at the target of interest as a positive control.

nAChR(a4/b2) = biological target: T2, nAChR(a4/b2) (Homo sapiens, UniProt P17787+P43681); experiment: Functional selectivity panel, nAChR(a4/b2); assay type: biochemical; settings: up to 10 micromolar
T2 construct: Eurofins DiscoverX functional panel cells
T2 sequence (P43681 27-627): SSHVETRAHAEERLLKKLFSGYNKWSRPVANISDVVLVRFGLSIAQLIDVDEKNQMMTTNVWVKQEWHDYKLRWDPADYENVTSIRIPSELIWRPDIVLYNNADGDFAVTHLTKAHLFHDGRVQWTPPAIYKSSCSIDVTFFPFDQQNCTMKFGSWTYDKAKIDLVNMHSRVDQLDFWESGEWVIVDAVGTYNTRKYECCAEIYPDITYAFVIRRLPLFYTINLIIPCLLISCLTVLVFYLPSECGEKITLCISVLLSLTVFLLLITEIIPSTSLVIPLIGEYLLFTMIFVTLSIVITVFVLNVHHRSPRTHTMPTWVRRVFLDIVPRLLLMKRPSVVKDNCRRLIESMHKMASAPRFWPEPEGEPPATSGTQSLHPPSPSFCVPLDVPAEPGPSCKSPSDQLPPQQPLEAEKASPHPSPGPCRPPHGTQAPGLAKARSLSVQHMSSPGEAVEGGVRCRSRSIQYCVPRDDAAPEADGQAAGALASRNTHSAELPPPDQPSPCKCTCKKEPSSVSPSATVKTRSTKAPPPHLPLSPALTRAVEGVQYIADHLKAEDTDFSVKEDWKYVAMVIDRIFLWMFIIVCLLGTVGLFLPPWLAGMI
T2 sequence (P17787 26-502): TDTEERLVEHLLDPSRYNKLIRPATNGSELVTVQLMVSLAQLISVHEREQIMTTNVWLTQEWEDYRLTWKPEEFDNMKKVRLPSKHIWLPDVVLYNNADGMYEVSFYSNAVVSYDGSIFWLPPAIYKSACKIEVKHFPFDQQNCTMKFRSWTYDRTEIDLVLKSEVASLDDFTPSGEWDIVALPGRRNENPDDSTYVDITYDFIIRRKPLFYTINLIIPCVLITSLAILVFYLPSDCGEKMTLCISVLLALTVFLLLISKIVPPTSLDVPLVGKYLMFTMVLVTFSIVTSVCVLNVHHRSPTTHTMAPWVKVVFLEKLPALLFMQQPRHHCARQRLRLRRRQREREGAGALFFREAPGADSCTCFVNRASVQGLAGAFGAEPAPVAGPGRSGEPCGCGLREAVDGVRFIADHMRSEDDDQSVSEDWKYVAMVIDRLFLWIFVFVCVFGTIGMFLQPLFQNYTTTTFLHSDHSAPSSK
Method: as §1

COX-1/2 = experiment: Functional selectivity panel, COX-1/2; assay type: biochemical; settings: up to 10 micromolar
Method: as §1

5-HT1A = 5-HT1A (Homo sapiens, UniProt P08908); experiment: Functional screening panel, 5-HT1A; assay type: biochemical; settings: antagonist; read-out: IC/EC50 5-HT1A-antagonist
Chain of 5-HT1A (P08908 whole entry, species assumed): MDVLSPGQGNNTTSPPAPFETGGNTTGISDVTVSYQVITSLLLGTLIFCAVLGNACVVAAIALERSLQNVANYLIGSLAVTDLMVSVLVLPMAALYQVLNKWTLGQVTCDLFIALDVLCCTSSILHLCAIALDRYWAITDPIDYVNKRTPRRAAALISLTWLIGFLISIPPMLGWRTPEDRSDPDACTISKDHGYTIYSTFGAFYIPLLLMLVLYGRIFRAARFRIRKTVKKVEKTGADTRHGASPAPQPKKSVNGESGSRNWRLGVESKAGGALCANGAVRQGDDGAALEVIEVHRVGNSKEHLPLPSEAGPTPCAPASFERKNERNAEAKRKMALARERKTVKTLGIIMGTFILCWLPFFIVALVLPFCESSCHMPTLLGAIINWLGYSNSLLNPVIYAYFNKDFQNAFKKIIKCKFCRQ
Method: as §1

BCRP = experiment: Transporter substrate, BCRP; assay type: in vitro ADME; settings: role: substrate
Method: (§2) Additionally, compound 760 was tested for its capability to act as a transporter substrate for various transporters, and was not found to be a transporter substrate for any of the tested transporters.

OATP1B1 = OATP1B1 (Homo sapiens, UniProt Q9Y6L6); experiment: Transporter substrate, OATP1B1; assay type: in vitro ADME; settings: role: substrate
Chain of OATP1B1 (Q9Y6L6 whole entry): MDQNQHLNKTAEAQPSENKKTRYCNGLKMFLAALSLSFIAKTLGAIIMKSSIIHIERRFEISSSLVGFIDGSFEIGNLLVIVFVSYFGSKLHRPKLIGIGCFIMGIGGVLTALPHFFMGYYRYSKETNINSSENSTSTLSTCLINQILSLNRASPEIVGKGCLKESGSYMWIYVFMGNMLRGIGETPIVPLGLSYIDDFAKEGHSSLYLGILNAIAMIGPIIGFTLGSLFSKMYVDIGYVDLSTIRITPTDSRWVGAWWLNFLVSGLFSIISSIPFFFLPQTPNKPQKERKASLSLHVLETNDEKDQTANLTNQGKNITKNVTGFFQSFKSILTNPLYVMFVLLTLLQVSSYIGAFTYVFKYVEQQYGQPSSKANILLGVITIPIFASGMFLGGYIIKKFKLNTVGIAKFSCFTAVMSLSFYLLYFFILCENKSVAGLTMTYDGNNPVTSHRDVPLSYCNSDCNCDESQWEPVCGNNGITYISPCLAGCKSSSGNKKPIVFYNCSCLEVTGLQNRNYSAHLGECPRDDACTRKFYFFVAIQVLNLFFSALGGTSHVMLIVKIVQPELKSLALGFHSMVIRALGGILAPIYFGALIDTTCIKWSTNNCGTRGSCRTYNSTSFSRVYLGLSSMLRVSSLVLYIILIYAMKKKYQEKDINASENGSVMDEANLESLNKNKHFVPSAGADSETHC
Method: as §2

OATP1B3 = OATP1B3 (Homo sapiens, UniProt Q9NPD5); experiment: Transporter substrate, OATP1B3; assay type: in vitro ADME; settings: role: substrate
Chain of OATP1B3 (Q9NPD5 whole entry): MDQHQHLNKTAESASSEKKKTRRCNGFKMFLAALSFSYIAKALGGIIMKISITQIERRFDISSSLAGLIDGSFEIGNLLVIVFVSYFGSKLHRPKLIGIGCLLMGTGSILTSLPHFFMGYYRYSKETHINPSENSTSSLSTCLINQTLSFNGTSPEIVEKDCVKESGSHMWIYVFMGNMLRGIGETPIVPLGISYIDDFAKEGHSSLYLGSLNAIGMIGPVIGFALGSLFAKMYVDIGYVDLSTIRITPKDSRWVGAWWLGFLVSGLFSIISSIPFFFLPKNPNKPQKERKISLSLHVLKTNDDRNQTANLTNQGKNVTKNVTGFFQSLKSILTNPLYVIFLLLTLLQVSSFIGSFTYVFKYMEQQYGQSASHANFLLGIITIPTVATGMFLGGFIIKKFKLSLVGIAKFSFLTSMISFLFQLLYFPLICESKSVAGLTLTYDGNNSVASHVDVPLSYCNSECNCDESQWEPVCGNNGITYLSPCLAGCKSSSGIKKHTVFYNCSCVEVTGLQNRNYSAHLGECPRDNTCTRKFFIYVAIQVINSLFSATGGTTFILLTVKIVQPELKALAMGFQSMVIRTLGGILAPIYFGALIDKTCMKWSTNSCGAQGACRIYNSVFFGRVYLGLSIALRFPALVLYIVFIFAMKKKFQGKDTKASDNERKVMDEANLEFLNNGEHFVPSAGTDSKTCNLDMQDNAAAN
Method: as §2

OAT3 = OAT3 (Homo sapiens, UniProt Q8TCC7); experiment: Transporter substrate, OAT3; assay type: in vitro ADME; settings: role: substrate
Chain of OAT3 (Q8TCC7 whole entry): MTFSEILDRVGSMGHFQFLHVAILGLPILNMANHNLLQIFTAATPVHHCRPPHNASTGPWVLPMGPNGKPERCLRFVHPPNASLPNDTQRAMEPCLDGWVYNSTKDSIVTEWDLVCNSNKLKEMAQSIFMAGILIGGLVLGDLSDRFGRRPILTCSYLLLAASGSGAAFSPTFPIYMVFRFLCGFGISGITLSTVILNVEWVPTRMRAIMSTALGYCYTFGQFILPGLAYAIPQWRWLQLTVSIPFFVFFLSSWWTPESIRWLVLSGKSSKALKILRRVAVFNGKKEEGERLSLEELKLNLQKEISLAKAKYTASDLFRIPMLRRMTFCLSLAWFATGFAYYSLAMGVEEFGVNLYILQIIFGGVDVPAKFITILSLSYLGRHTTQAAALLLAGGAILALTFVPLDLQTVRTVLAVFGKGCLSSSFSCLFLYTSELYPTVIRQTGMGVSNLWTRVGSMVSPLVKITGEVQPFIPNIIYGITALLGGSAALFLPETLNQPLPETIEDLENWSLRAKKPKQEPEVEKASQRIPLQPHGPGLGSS
Method: as §2

Compound	Reversal of weight bearing changes (MIA-OA rats)	Rotarod performance (rats)	pIC50 (muscarinic m2 receptor)	Effect on nAChR(a4/b2) (nAChR(a4/b2))	Effect on COX-1/2 (COX-1/2)	pIC50 (5-HT1A)	BCRP substrate (BCRP)	OATP1B1 substrate (OATP1B1)	OATP1B3 substrate (OATP1B3)	OAT3 substrate (OAT3)
O=C(Cc1cncc(-n2cc(Cl)c3cc(Cl)cc(Cl)c32)c1)N[C@@H]1COC[C@H]1O [Compound 661]	44%	no effects on rotarod performance	5.30	–	–	–	–	–	–	–
O=C(Cc1nccc(-n2cc(Cl)c3cc(Cl)cc(Cl)c32)n1)NC1COCC1O (stereo not shown) [Compound 760]	–	–	–	no effect	no effect	4.52	not a transporter substrate or a poor substrate	not a transporter substrate	not a transporter substrate	not a transporter substrate
